Experimental findings from publication PMC12040169 (PLOS Biology, 2025) are described below.

Structures are written as SMILES.

This series in a line: in vitro. To be noted: human, hela cells, % viability.
With `O=C(Cn1c(-c2cncs2)nc2ccccc21)Nc1ccc(C(=O)N2CCCCC2)cc1` [CBK269439], the viability at 28.5 h, 10 µM stood at 102%.
Then `CN(Cc1ccccc1)Cc1nc2c([nH]1)c(=O)[nH]c(=O)n2C` [CBK269442], with 106%.
With `Cc1ccc(S(=O)(=O)N2CCN(CCC(=O)O)CC2)cc1` [CBK269443], the viability at 28.5 h, 10 µM was determined as 97.1%.
In the case of `O=C(O)c1ccc(NC(=O)c2ncn(-c3ccccc3)n2)cc1` [CBK269445] it was 97.7%; in that of `O=c1c2c3c(sc2ncn1CC(O)CO)CCCC3` (stereo not drawn) [CBK269448], 94.8%; in that of `COc1ccc(Br)cc1CNCc1ccc(C(=O)O)cc1` [CBK269449C], 96.2%.
Then `COc1ccc(N2CCN(Cc3nc4c(c(=O)n(C)c(=O)n4C)n3C(C)C(C)=O)CC2)cc1` (stereo not drawn) [CBK269453], with 88.7%.
In the case of `CN(C)CC(=O)Nc1ccc(Oc2ccc(Cl)cc2)cc1` [CBK269459C] it was 94.9%; in that of `O=S(=O)(NCc1nc2ccccc2[nH]1)c1ccccc1` [CBK269460], 94.6%; in that of `Cn1c(=O)n(C)c2cc(CNc3ccc(N4CCOCC4)c(C(=O)O)c3)ccc21` [CBK269463], 84.7%.
On to `O=c1c2c3nc4ccccc4nc3n(CCc3ccccc3)c2ncn1C1CCCC1` [CBK269464], for which the viability at 28.5 h, 10 µM was found to be 105%.
For the compound `COc1ccc(N2CCN(Cc3nc4c(c(=O)n(C)c(=O)n4C)n3CC(C)=O)CC2)cc1` [CBK269465], the viability at 28.5 h, 10 µM is 103%.
Consider `CCOC(=O)CSc1nc(C)cc(Oc2ccc(=O)n(C)n2)n1` [CBK269476], for which the viability at 28.5 h, 10 µM stood at 101%.
In the case of `Cc1ccc(C(=O)NCCCNC(=O)c2ccncc2)cc1` [CBK269477] it was 86%.
Then `Cc1[nH]c2ccccc2c1C(CC(=O)c1ccc(Br)cc1)C(=O)O` (stereo not drawn) [CBK269480], with 90.9%.
Then `O=C1NC2CCCCC2NC1CC(=O)N1CCN(Cc2ccccc2)CC1` (stereo not drawn) [CBK269484], with 92.5%; and `N#Cc1c(NC(=O)C(=O)NCc2cccnc2)sc2c1CCCC2` [CBK269485], with 91%.
With `COC(=O)c1ccc(NC(=O)c2ccc(-n3cccn3)cc2)cc1` [CBK269486], the viability at 28.5 h, 10 µM came to 90.7%.
In the case of `Cc1ccccc1Cn1c(CN2CCN(c3ccccc3)CC2)nc2c1c(=O)n(C)c(=O)n2C` [CBK269488] it was 94.6%; in that of `Fc1ccc(-c2cc(C(F)(F)F)nc(NCC3CCCO3)n2)cc1` (stereo not drawn) [CBK269492], 89.1%; in that of `Cc1cccnc1NC(=O)c1ccc(NC(C)C)c([N+](=O)[O-])c1` [CBK269494], 86.1%.
On to `O=C(Nc1ccc(N2CCN(C(=O)c3ccccc3F)CC2)cc1)c1nc[nH]n1` [CBK269497], for which the viability at 28.5 h, 10 µM turned out to be 107%.
In the case of `COc1ccc(C(=O)COc2nc3c(C(F)(F)F)cc(C4CC4)nc3o2)cc1` [CBK269498] it was 87%.
Then `Cn1c(=O)[nH]c(=O)c2c1nc(NC1CCCCC1)n2CCCc1ccccc1` [CBK269500], with 92.7%; and `COc1ccccc1/C=C/c1nn2c(C(C)C)nnc2s1` [CBK269501], with 79.3%; and `O=c1c2c3nc4ccccc4nc3n(CCc3ccccc3)c2ncn1Cc1ccco1` [CBK269502], with 77.5%.
Take `COc1cccc(/C=C/c2nc(C#N)c(NCCCN3CCOCC3)o2)c1` [CBK269506]: the viability at 28.5 h, 10 µM came to 107%.
In the case of `CN1CCN(Cc2nc3c(c(=O)n(C)c(=O)n3C)n2CCc2ccccc2)CC1` [CBK269507] it was 96.2%; in that of `Cc1ccc2[nH]c(SCc3nc(-c4cccs4)no3)nc2c1` [CBK269509], 108%; in that of `O=C(COc1ccc(S(=O)(=O)N2CCCCC2)cc1Cl)N1CCc2ccccc2C1` [CBK269510], 88%.
In the case of `CCOc1cc(-c2noc(CCC(=O)N3CCN(C)CC3)n2)ccc1OC` [CBK269513] it was 105%; in that of `O=C(CN1CCN(S(=O)(=O)N2CCCCC2)CC1)Nc1ccc(Br)cc1` [CBK269515], 91.7%.
In the case of `O=C(Nc1cccc(Cl)c1)Nc1ccc(C(=O)O)c(O)c1` [CBK269518] it was 94.2%; in that of `Cn1c(=O)c2[nH]c(CN3CCN(Cc4ccccc4)CC3)nc2n(C)c1=O` [CBK269519], 86.3%.
With `COc1cccc(-c2coc3cc4oc(=O)c(CC(=O)O)c(C)c4cc23)c1` [CBK269520], the viability at 28.5 h, 10 µM was 86.6%.
Consider `Cn1c(=O)c2c(nc(CN3CCCCC3)n2CCCc2ccccc2)n(C)c1=O` [CBK269521], for which the viability at 28.5 h, 10 µM was 96.5%.
In the case of `Cc1cc(S(=O)(=O)NCCCn2ccnc2)c(C)cc1Br` [CBK269525] it was 91.8%.
Then `COc1ccc(NC(=O)COc2noc3nc(C)c(C)c(C)c23)cc1OC` [CBK269526], with 108%.
Then `NC(=O)C1CCN(CC(O)COc2ccc(-c3ccccc3)cc2)CC1` (stereo not drawn) [CBK269528], with 89.9%; and `Cn1c(=O)[nH]c(=O)c2c1nc(N1CCN(Cc3ccccc3)CC1)n2CCCc1ccccc1` [CBK269529], with 104%.
Turning to `O=C(NCCCN1CCOCC1)NC(=O)c1ccc(Cl)cc1` [CBK269531], the viability at 28.5 h, 10 µM stood at 96.4%.
Then `CCN1CCN(c2ccc(NC(=O)Cn3cnc4c(=O)n(C)c(=O)n(C)c43)cc2Cl)CC1` [CBK269535], with 94.3%; and `COc1cc(CNc2nn[nH]n2)ccc1OCc1ccc(F)cc1Cl` [CBK269536], with 90.6%.
In the case of `CCN(CC(=O)NCc1ccncc1)S(=O)(=O)c1ccccc1` [CBK269537] it was 88.7%; in that of `CCCCn1cnc2c(c1=O)c1nc3ccccc3nc1n2CCc1ccc(OC)cc1` [CBK269538], 85.7%.
For the compound `O=C(COc1ccc(S(=O)(=O)N2CCCCC2)cc1Cl)Nc1ccc2c(c1)OCCO2` [CBK269540], the viability at 28.5 h, 10 µM is 97%.
In the case of `O=C(CC(C(=O)O)n1cccn1)c1ccc(Br)cc1` (stereo not drawn) [CBK269541] it was 90.8%; in that of `COc1cc(CNC(C)(C)CO)c(Cl)cc1OC(C)C` [CBK269542], 89.9%.
For `Cc1cccnc1NC(=O)c1ccc(NCCc2ccccc2)c([N+](=O)[O-])c1` [CBK269543], the viability at 28.5 h, 10 µM turned out to be 96.1%.
Then `CCN(CC(=O)NCc1ccccn1)S(=O)(=O)c1ccccc1` [CBK269546], with 90.2%; and `Cc1cc2c(cc1C)NC(CC(=O)Nc1cccc(Br)c1)C(=O)N2` (stereo not drawn) [CBK269548], with 73.3%.
In the case of `CCn1c(CCCNC=O)nc2ccccc21` [CBK269551] it was 86.2%.
Take `COc1ccc(N2CCN(Cc3nc4c(c(=O)n(C)c(=O)n4C)n3Cc3cccc(C)c3)CC2)cc1` [CBK269552]: the viability at 28.5 h, 10 µM was 78.4%.
In the case of `CCc1ccc(C(=O)NC(Cc2c[nH]c3ccccc23)C(=O)O)cc1` (stereo not drawn) [CBK269556] it was 101%; in that of `Cn1c(=O)c2c(nc(CN3CCN(c4ccccc4)CC3)n2Cc2ccccc2)n(C)c1=O` [CBK269557], 85.1%.
In the case of `O=C(C1CCN(S(=O)(=O)c2ccc3ccccc3c2)CC1)N1CCC(Cc2ccccc2)CC1` [CBK269558] it was 83%.
In the case of `CNc1nc(SCC(=O)Nc2ccc(Cl)c(Cl)c2)nc(N2CCOCC2)n1` [CBK269559] it was 85.3%; in that of `Cn1c(=O)c2c(nc(CN3CCOCC3)n2CCN2CCOCC2)n(C)c1=O` [CBK269560], 106%; in that of `COc1ccccc1NC(=O)C(c1ccccc1)N1CCOCC1` (stereo not drawn) [CBK269561], 107%.
Turning to `Clc1ccc(-c2ccc(CNCCCN3CCOCC3)o2)cc1` [CBK269562C], the viability at 28.5 h, 10 µM is 90.5%.
Then `Cn1c(=O)c2c(nc(CN3CCCCC3)n2CC(=O)c2ccccc2)n(C)c1=O` [CBK269563], with 87.1%; and `c1ccc(-c2nc3sc4c(ncn5cnnc45)c3c3c2CCC3)cc1` [CBK269566], with 84.3%; and `COc1cc(CNC23CC4CC(CC(C4)C2)C3)c(Cl)cc1OCC(=O)O` [CBK269567], with 87.6%.
On to `COc1ccc(Cl)cc1S(=O)(=O)N1CCC(C(N)=O)(N2CCCCC2)CC1` [CBK269571], for which the viability at 28.5 h, 10 µM turned out to be 97.9%.
Then `Cc1ccc(C(=O)C2=C(O)C(=O)N(CCCN(C)C)C2c2ccccn2)o1` (stereo not drawn) [CBK269575], with 89.1%.
Then `O=C(C1=C(O)C(=O)N(CCN2CCOCC2)C1c1ccccn1)c1cc2ccccc2o1` (stereo not drawn) [CBK269576], with 107%.
Then `CN1CCN(Cc2nc3c([nH]2)c(=O)n(C)c(=O)n3C)CC1` [CBK269578], with 104%.
As for `CC(C)CNc1nc(SCC(N)=O)nc(N(C)C)n1` [CBK269579], the viability at 28.5 h, 10 µM came out at 93.8%.
In the case of `CC(=O)CSc1nc2c(c(=O)n(C)c(=O)n2C)n1CCCc1ccccc1` [CBK269581] it was 84.6%; in that of `Cn1c(=O)c2c(nc(CN3CCN(Cc4ccccc4)CC3)n2CCCc2ccccc2)n(C)c1=O` [CBK269582], 90.9%; in that of `Cc1ccc(Cn2c(CN3CCOCC3)nc3c2c(=O)n(C)c(=O)n3C)cc1` [CBK269583], 91.1%.
Consider `CC(C)(C)NC(=O)Cn1cnc2c(cnn2-c2ccccc2)c1=O` [CBK269586], for which the viability at 28.5 h, 10 µM turned out to be 91.6%.
In the case of `N#Cc1ccccc1CSc1nc2ccc([N+](=O)[O-])cc2[nH]1` [CBK269589] it was 84.5%.
In the case of `Cc1ccc2cc(CN(CC(C)C)S(C)(=O)=O)c(O)nc2c1` [CBK269593] it was 101%; in that of `COc1cc(NC(=O)c2cc3c4c(sc3nc2N)CN(C)CC4)c(OC)c(OC)c1` [CBK269597], 77.1%.
In the case of `COC(=O)Cn1c(CN2CCN(c3cccc(Cl)c3)CC2)nc2c1c(=O)n(C)c(=O)n2C` [CBK269598] it was 86.7%; in that of `O=C(Nc1sc2c(c1C(=O)NCc1cccnc1)CCC2)c1ccco1` [CBK269599], 81%; in that of `CS(=O)(=O)c1ncc(Cl)c(C(=O)N(Cc2ccccc2)Cc2ccco2)n1` [CBK269603], 29.3%.

For orientation: viability means a read-out of living cells in per cent, often relative to untreated cells.
